Reference: patent US9815831B2, “3,5-disubstituted-3H-imidazo[4,5-B]pyridine and 3,5-disubstituted-3H-[1,2,3]triazolo[4,5-B] pyridine compounds as modulators of c-Met protein kinases” (Rhizen Pharmaceuticals SA, priority 2012, dated 2017)
Where a name gives a salt, the structure may show the parent alone. Read-outs that look alike come from different tables or passages of the source. One block for each compound: values may come before it.

Key:
MKN-45 = assay: Inhibition of MKN-45 proliferation (MTT); format: cell-based, human; conditions: MKN-45 proliferation; for GI50: read-out: MKN45 GI50
Experimental: 3. Inhibition of MKN-45 Proliferation:
Cell proliferation assays were carried out using the high Met expressing human gastric adenocarcinoma cell line, MKN-45, according to the following schedule: • Day 1: Cells were plated in 96-well plates in complete growth medium. • Day 2: Compounds at desired concentrations were added. • Day 5: Cell viability was determined using the 3-[4,5-dimethylthiazol-2-yl]-2,5-diphenyltetrazolium bromide (MTT) dye reduction test. Results: The results are as given as % Inhibition of MKN-45 proliferation at 100 nM and GI50 values in Table 4A to 4C above. 4. Inhibition of c-Met Kinase Phosphorylation in MKN-45 Cells: […]

[1] = biological target: T1, human recombinant Met kinase (Homo sapiens, UniProt P08581); assay: Colorimetric determination of c-Met kinase activity (HTScan Met Kinase Assay Kit); format: biochemical; conditions: for inhibition at 0.1 µM: 100 nM (cells without *), read-out: c-Met Enzyme % inhibition @ 100 nM; for inhibition: cells marked *: tested @ 300 nM, read-out: c-Met Enzyme % inhibition
T1 construct: purchased Cell Signalling Technology, Beverly, Mass
T1 sequence (P08581 25-1390): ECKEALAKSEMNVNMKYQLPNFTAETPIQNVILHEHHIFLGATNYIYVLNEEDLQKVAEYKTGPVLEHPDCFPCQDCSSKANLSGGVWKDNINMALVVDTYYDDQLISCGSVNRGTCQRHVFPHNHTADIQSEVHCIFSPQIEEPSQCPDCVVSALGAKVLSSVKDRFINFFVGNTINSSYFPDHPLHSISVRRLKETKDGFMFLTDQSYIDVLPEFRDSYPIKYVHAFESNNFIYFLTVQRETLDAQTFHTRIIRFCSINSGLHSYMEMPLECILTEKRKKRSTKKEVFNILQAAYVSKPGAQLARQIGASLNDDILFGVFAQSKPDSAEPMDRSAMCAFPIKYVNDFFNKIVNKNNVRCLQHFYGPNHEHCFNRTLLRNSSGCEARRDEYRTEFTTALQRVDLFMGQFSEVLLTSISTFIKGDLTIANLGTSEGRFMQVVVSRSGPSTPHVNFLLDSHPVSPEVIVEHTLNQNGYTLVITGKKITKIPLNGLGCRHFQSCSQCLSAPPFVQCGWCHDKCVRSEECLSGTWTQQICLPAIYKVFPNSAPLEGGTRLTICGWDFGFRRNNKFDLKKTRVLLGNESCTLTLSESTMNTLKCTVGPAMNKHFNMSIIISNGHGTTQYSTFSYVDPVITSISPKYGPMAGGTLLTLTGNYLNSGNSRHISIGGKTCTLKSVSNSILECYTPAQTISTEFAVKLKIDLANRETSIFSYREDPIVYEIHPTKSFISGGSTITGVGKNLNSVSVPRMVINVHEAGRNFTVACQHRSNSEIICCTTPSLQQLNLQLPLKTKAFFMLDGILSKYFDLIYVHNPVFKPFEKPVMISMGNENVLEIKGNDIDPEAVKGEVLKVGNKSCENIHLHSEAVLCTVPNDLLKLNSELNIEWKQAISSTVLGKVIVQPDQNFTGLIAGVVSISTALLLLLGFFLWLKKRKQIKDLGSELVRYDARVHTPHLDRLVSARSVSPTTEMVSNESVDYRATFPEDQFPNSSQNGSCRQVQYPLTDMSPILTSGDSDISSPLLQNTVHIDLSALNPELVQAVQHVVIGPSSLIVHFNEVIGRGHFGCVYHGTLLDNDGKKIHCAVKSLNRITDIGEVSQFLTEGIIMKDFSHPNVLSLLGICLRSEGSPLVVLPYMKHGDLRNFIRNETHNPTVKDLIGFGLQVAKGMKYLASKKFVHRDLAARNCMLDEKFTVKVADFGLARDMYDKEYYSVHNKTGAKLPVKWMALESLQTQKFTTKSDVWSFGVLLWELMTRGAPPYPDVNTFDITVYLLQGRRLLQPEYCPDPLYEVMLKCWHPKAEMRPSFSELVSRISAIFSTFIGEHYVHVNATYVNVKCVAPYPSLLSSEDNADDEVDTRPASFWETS
Description: 1. MET Kinase Assay Protocol:
Colorimetric Determination of c-Met Kinase Activity
The receptor tyrosine kinase c-Met is a heterodimeric transmembrane glycoprotein involved in several cellular processes that aid in tumor progression. Phosphorylation of the tyrosine residues in the c-Met kinase domain is critical for its activity and the resulting down-stream effects. The colorimetric assay allows detection of the phosphorylated form of a biotinylated peptide upon activation of human recombinant Met kinase.
MET Kinase Assay Protocol:
c-Met Kinase activity shall be determined using an HTScan® Met Kinase Assay Kit (Cell Signalling Technology, Beverly, Mass.) with modifications. All incubations are carried out at room temperature. Briefly, 12.5 μl of a 4× reaction cocktail (DTT/Kinase buffer containing appropriate quantity of human Met kinase) is added to each well of a 96-well plate containing 12.5 μl pre-diluted compound of interest and incubated for 5 minutes. After the initial incubation, 25 μl/well of 2×ATP/biotinylated peptide is added and incubated for an additional 30 minutes. The reaction is terminated by the addition of 50 μl/well stop buffer (50 mM EDTA, pH 8.0). The reaction mixture (25 μl/well) is then transferred to a streptavidin coated plate (Perkin Elmer, Cat#4009-0010) containing 75 μl dH2O and incubated for 60 minutes. The plate is washed with 200 μl/well wash buffer (1×PBS, 0.05% Tween-20). After washing, 100 μl/well phospho-tyrosine mAb (1:1000 in wash buffer containing 1% BSA) is added and incubated for 60 minutes. After another round of washes, 100 μl/well europium labelled anti-mouse IgG (1:500 in wash buffer containing 1% BSA) is added and incubated for an additional 30 minutes. Following additional washes, 100 μl/well Delfia^(R) enhancement solution (Perkin Elmer, Cat#1244-105) is added and incubated for 45 minutes. Florescence is measured on a microplate reader (BMG Labtech., Germany) at 340 nm (excitation) and 615 nm (emission) for calculating % inhibition. Data generated can be analyzed further using Graphpad Prism (Graphpad software, San Diego Calif.) for determination of IC50.
Results: The results are as given below in Table 4A, 4B and 4C as % Inhibition or IC50 of c-Met

SMILES: CNC(=O)CNC(=O)c1ccc(-c2ccc3nnn(Cc4ccc5ncccc5c4)c3n2)cc1 [Example 2, N-(2-(methylamino)-2-oxoethyl)-4-(3-(quinolin-6-ylmethyl)-3H-[1,2,3]triazolo[4,5-b]pyridin-5-yl)benzamide]
GI50 (MKN-45; Homo sapiens, MKN-45, Table 4A): 100 to 250 nM

SMILES: Cl.O=C(NOCCO)c1ccc(-c2ccc3nnn(Cc4cc5cccnc5cc4F)c3n2)cc1Cl [Example 7a, 2-chloro-4-(3-((7-fluoroquinolin-6-yl)methyl)-3H-[1,2,3]triazolo[4,5-b]pyridin-5-yl)-N-(2-hydroxyethoxy)benzamide hydrochloride]
MKN45 % inhibition @ 100 nM (MKN-45; Table 4A): A (A= ≧75 to 100%)

SMILES: Cl.O=C(NOCCO)c1c(F)cc(-c2ccc3nnn(Cc4ccc5ncccc5c4)c3n2)cc1F [Example 8a, 2,6-difluoro-N-(2-hydroxyethoxy)-4-(3-(quinolin-6-ylmethyl)-3H-[1,2,3]triazolo[4,5-b]pyridin-5-yl)benzamide hydrochloride]
MKN45 % inhibition @ 100 nM (MKN-45; Table 4A): C (C = ≧25-<50%)

SMILES: Cl.O=C(NOCCO)c1c(F)cc(-c2ccc3nnn(Cc4cc5cccnc5cc4F)c3n2)cc1F [Example 9a, 2,6-difluoro-4-(3-((7-fluoroquinolin-6-yl)methyl)-3H-[1,2,3]triazolo[4,5-b]pyridin-5-yl)-N-(2-hydroxyethoxy)benzamide hydrochloride]
MKN45 % inhibition @ 100 nM (MKN-45; Table 4A): A (A= ≧75 to 100%)
GI50 (MKN-45; Table 4A, hydrochloride): 25 to 50 nM

SMILES: Cc1cc(-c2ccc3nnn(Cc4ccc5ncccc5c4)c3n2)ccc1C(=O)NOCCO [Example 25a, N-(2-hydroxyethoxy)-2-methyl-4-(3-(quinolin-6-ylmethyl)-3H-[1,2,3]triazolo[4,5-b]pyridin-5-yl)benzamide hydrochloride]
MKN45 % inhibition @ 100 nM (MKN-45; Table 4A, hydrochloride, 0.1 µM): B (B = ≧50-<75%)

SMILES: Cc1cc(-c2ccc3nnn(Cc4ccc5[nH]c(=O)ccc5c4)c3n2)ccc1C(=O)NOCCO [Example 25d, N-(2-hydroxyethoxy)-2-methyl-4-(3-((2-oxo-1,2-dihydroquinolin-6-yl)methyl)-3H-[1,2,3]triazolo[4,5-b]pyridin-5-yl) benzamide]
inhibition at 0.1 µM ([1]; Table 4A): < 25%

SMILES: Cc1cc(-c2ccc3nnn(Cc4ccc5ncccc5c4)c3n2)ccc1C(=O)NOC[C@H](C)O [Example 36, (S)—N-(2-hydroxypropoxy)-2-methyl-4-(3-(quinolin-6-ylmethyl)-3H-[1,2,3]triazolo[4,5-b]pyridin-5-yl)benzamide]
inhibition at 0.1 µM ([1]; Table 4A): 75 to 100%

SMILES: Cc1cc(-c2ccc3nnn(Cc4ccc5[nH]c(=O)ccc5c4)c3n2)ccc1C(=O)NOCC(C)(C)O [Example 37, N-(2-hydroxy-2-methylpropoxy)-2-methyl-4-(3-((2-oxo-1,2-dihydroquinolin-6-yl)methyl)-3H-[1,2,3]triazolo[4,5-b]pyridin-5-yl)benzamide]
inhibition at 0.1 µM ([1]; Table 4A): 50 to 75%

SMILES: Cc1cc(-c2ccc3nnn(Cc4ccc5ncccc5c4)c3n2)ccc1C(=O)NO [Example 42, N-Hydroxy-2-methyl-4-(3-quinolin-6-ylmethyl-3H-[1,2,3]triazolo[4,5-b]pyridin-5-yl)-benzamide]
inhibition at 0.1 µM ([1]; Table 4A): 75 to 100%

SMILES: CC(=O)OCCONC(=O)c1ccc(-c2ccc3nnn(Cc4ccc5ncccc5c4)c3n2)cc1C [Example 43, 2-(2-methyl-4-(3-(quinolin-6-ylmethyl)-3H-[1,2,3]triazolo[4,5-b]pyridin-5-yl)benzamidooxy)ethyl acetate]
inhibition at 0.1 µM ([1]; Table 4A): 75 to 100%

SMILES: Cc1cc(-c2ccc3nnn(Cc4ccc5ncccc5c4)c3n2)ccc1C(=O)NOCCOC(=O)C(C)C [Example 44, 2-(2-methyl-4-(3-(quinolin-6-ylmethyl)-3H-[1,2,3]triazolo[4,5-b]pyridin-5-yl)benzamidooxy)ethyl isobutyrate]
inhibition at 0.1 µM ([1]; Table 4A): 75 to 100%

SMILES: Cc1cc(-c2ccc3nnn(Cc4ccc5ncccc5c4)c3n2)ccc1C(=O)NOCCOC(=O)C(C)(C)C [Example 45, 2-(2-methyl-4-(3-(quinolin-6-ylmethyl)-3H-[1,2,3]triazolo[4,5-b]pyridin-5-yl)benzamidooxy)ethyl pivalate]
inhibition at 0.1 µM ([1]; Table 4A): 75 to 100%

SMILES: Cc1cc(-c2ccc3nnn(Cc4ccc5ncccc5c4)c3n2)ccc1C(=O)NOCCOC(=O)c1ccccc1 [Example 46, 2-(2-methyl-4-(3-(quinolin-6-ylmethyl)-3H-[1,2,3]triazolo[4,5-b]pyridin-5-yl)benzamidooxy)ethyl benzoate]
inhibition at 0.1 µM ([1]; Table 4A): 75 to 100%

SMILES: Cc1cc(-c2ccc3nnn(Cc4ccc5ncccc5c4)c3n2)ccc1C(=O)NOCCOC(=O)c1ccco1 [Example 47, 2-(2-methyl-4-(3-(quinolin-6-ylmethyl)-3H-[1,2,3]triazolo[4,5-b]pyridin-5-yl)benzamidooxy)ethyl furan-2-carboxylate]
inhibition at 0.1 µM ([1]; Table 4A): 75 to 100%

SMILES: NC(=O)N/N=C(\N)c1ccc2nnn(Cc3ccc4ncccc4c3)c2n1 [Example 52, 2-(amino(3-(quinolin-6-ylmethyl)-3H-[1,2,3]triazolo[4,5-b]pyridin-5-yl)methylene)hydrazinecarboxamide]
inhibition ([1]; Table 4A): < 25%

Next, values leading:

inhibition ([1]; Table 4A): 25 to 50%
SMILES: C/C(=N\N1CC(=O)NC1=O)c1ccc2nnn(Cc3ccc4ncccc4c3)c2n1 [Example 54, (E/Z)-1-(1-(3-(quinolin-6-ylmethyl)-3H-[1,2,3]triazolo[4,5-b]pyridin-5-yl)ethylideneamino)imidazolidine-2,4-dione]

inhibition ([1]; Table 4A): < 25%
SMILES: CCNC(=S)N/N=C(\C)c1ccc2nnn(Cc3ccc4ncccc4c3)c2n1 [Example 55, N-ethyl-2-(1-(3-(quinolin-6-ylmethyl)-3H-[1,2,3]triazolo[4,5-b]pyridin-5-yl)ethylidene)hydrazinecarbothioamide]

inhibition at 0.1 µM ([1]; Table 4A): 50 to 75%
SMILES: C/C(=N\OCCNC(N)=O)c1ccc2nnn(Cc3ccc4ncccc4c3)c2n1 [Example 64, 1-(2-(1-(3-(quinolin-6-ylmethyl)-3H-[1,2,3]triazolo[4,5-b]pyridin-5-yl)ethylideneaminooxy)ethyl)urea]

inhibition at 0.1 µM ([1]; Table 4A): 75 to 100%
SMILES: CN(C)CCCNC(=O)c1ccc(-c2ccc3nnn(Cc4ccc5ncccc5c4)c3n2)cc1 [Example 68, N-(3-Dimethylamino-propyl)-4-(3-quinolin-6-ylmethyl-3H-[1,2,3]triazolo[4,5-b]pyridin-5-yl)-benzamide dihydrochloride]

inhibition ([1]; Table 4B): < 25%
SMILES: CN(C)CCNC(=O)c1ccc(-c2ccc3ncn(Cc4ccc5ncccc5c4)c3n2)cc1Cl [Example 101, 2-chloro-N-(2-(dimethylamino)ethyl)-4-(3-(quinolin-6-ylmethyl)-3H-imidazo[4,5-b]pyridin-5-yl)benzamide]

inhibition at 0.1 µM ([1]; Table 4B): 75 to 100%
SMILES: O=C(NOCCO)c1ccc(-c2ccc3ncn(Cc4ccc5ncccc5c4)c3n2)cc1Cl [Example 113, 2-Chloro-N-(2-hydroxy-ethoxy)-4-(3-quinolin-6-ylmethyl-3H-imidazo[4,5-b]pyridin-5-yl)-benzamide]

inhibition at 0.1 µM ([1]; Table 4B): 75 to 100%
SMILES: CC(C)(O)CONC(=O)c1ccc(-c2ccc3ncn(Cc4ccc5ncccc5c4)c3n2)cc1Cl [Example 114, 2-Chloro-N-(2-hydroxy-2-methyl-propoxy)-4-(3-quinolin-6-ylmethyl-3H-imidazo[4,5-b]pyridin-5-yl)-benzamide]

inhibition at 0.1 µM ([1]; Table 4C): < 25%
SMILES: NC(=O)c1c(F)cc(-c2ccc3nnn(Cc4ccc5c(ccc[n+]5[O-])c4)c3n2)cc1F [Example 1001, 6-((5-(4-carbamoyl-3,5-difluorophenyl)-3H-[1,2,3]triazolo[4,5-b]pyridin-3-yl)methyl)quinoline 1-oxide]

inhibition at 0.1 µM ([1]; Table 4C): < 25%
SMILES: NC(=O)c1ccc(-c2ccc3nnn(Cc4cc5ccc[n+]([O-])c5cc4F)c3n2)cc1Cl [Example 1002]
